Data published in patent US12447145B2, “Compositions and methods for treating inflammatory neurological disorders” (Georgetown University, priority 2018, dated 2025).

Columns and labels:
EAE mice = test: Experimental autoimmune encephalomyelitis (EAE) mouse model, clinical scoring; type: in vivo, C57BL/6 female mice
From the text: C57BL/6 female mice (Charles River) at age 10-12 weeks were acclimatized for 7 days prior to inducing experimental autoimmune encephalomyelitis (EAE). EAE was induced using the EAE kit (Hooke Laboratories, Cat. No: EK-2110) according to the Hooke Laboratories protocol (on the world wide web at hookelabs.com/protocols/eaeAI_C57BL6.html). Briefly, mice were immunized by an emulsion of MOG35-55 in complete Freund's adjuvant (CFA) injected subcutaneously at two sites (Day 0), followed by administration of pertussis toxin (PTX) intraperitoneally, first on the day of immunization (Day 0), and then again the following day (Day 1). Approximately 115 ng of PTX for each of the two PTX administrations were used.
The mice were scored blindly and daily from EAE Day 7 until at least EAE Day 30 according to the protocol from Hooke Laboratories. The scoring system used was as follows: 0.0=no obvious changes in motor function; 0.5=tip of tail is limp; 1.0=limp tail; 1.5=limp tail and hind leg inhibition; 2.0=limp tail and weakness of hind legs or signs of head tilting; 2.5=limp tail and dragging of hind legs or strong head tilting; 3.0=limp tail and complete paralysis of hind legs or limp tail with paralysis of one front and one hind leg; 3.5=limp tail and complete paralysis of hind legs plus mouse unable to right itself when placed on its side; 4.0=limp tail, complete hind leg and partial front leg paralysis, mouse is minimally moving but appears alert and feeding; 4.5=complete hind and partial front leg paralysis, no movement around the cage, mouse is not alert; 5.0=mouse is found dead due to paralysis or mouse is euthanized due to severe paralysis
The clinical scores and weight of mice were recorded daily until the end of experiment. […] For each experiment, 8 to 10 mice from each group were analyzed.
EAE mice were treated with L-type amino acid transporter 1 (LAT1) inhibitor JPH203 dihydrochloride starting at scores 1.0 and 3.0. […] Clinical scores of the animals from each group were recorded at 1-7 days after the first injection.

[1] = test system: CNS lesions (lysolecithin-induced focal demyelination); test: Lysolecithin-induced focal demyelination of the spinal cord, immunohistochemistry of lesions; type: in vivo, mice
Experimental: Focal demyelination was induced by injecting 1% lysolecithin (Sigma-Aldrich) into the spinal cord ventral funiculus of 8-12 weeks old C57B1/6 mice of either sex. At 5 and 10 days post lesion (dpl), mice were perfused intracardially with 4% (w/v) paraformaldehyde (PFA; Sigma). To perform IHC, mice were perfusion-fixed with 4% PFA (Sigma). Spinal cords were dissected and postfixed for 30 min in 4% PFA at 4° C. and cryoprotected in 20% (w/v) sucrose (Sigma) in PBS overnight before freezing in O.C.T. on the surface of dry ice. Twelve-micrometer-thick spinal cord sections were cut using cryostat (Leica CM1900), collected on SuperFrostPlus slides (VWR International), and allowed to dry for 30 min before storing at −80° C. For IHC, sections were incubated in blocking solution (0.1% Triton™ X-100 and 10% FBS in PBS) for 1 h at room temperature (RT). Primary antibodies were diluted in blocking solution and applied overnight at 4° C. Fluorescent dye-conjugated secondary antibodies were obtained from Life Technologies and used according to the manufacturer's instruction. Focal demyelination was induced by injecting 1% lysolecithin, JPH203 or PBS control was injected via intraperitoneal from 5-9 dpl. Mice were sacrificed at 10 dpl by intracardial perfusion with 4% PFA (Sigma). IHC was performed as previously described. Twelve-micrometer-thick fixed spinal cord sections were cut using cryostat (Leica CM1900), collected on SuperFrostPlus slides (VWR International), and allowed to dry for 30 min before storing at −80° C. For IHC, sections were incubated in blocking solution (0.1% Triton™ X-100 and 10% FBS in PBS) for 1 h at room temperature (RT). Primary antibodies were diluted in blocking solution and applied overnight at 4° C. Sources and dilutions of primary antibodies were as follows: rabbit anti-Olig2 (1:300; Millipore), mouse anti-CC1 (1:200; Sigma). Fluorescent dye-conjugated secondary antibodies were obtained from Life Technologies and used according to the manufacturer's instruction. Antigen retrieval was used for Olig2 and mouse on mouse antigen retrieval with M.O.M.™ kit (Vector Laboratories) for CC1. DAPI nuclear counterstain was used before mounting sections with fluoromount-G (Southern-Biotech). ImageJ (NIH) was used to quantify Olig2+ CC1+ cells.

**Q.** With `Nc1cc(COc2c(Cl)cc(C[C@H](N)C(=O)O)cc2Cl)c2oc(-c3ccccc3)nc2c1` [JPH203, (S)-2-Amino-3-(4-((5-amino-2-phenylbenzo[d]oxazol-7-yl)methoxy)-3,5-dichlorophenyl) propanoic acid] as the molecule, how does the “progression of EAE to higher scores” value (EAE mice; prophylactic treatment starting at score 1.0, PBS controls progressed to score 3.0 or higher, FIG. 2B) read?
**A.** prevented progression of EAE to higher scores

**Q.** What about the “motor recovery (clinical score), prophylactic efficacy” value (EAE mice; treatment starting at clinical score 1.0, 25 mg/kg intraperitoneal daily for 5 days, compared to PBS control, FIG. 2B) of the same molecule?
**A.** motor recovery

**Q.** And the “motor recovery (clinical score), treatment efficacy” value (EAE mice; treatment starting at clinical score 3.0, 25 mg/kg intraperitoneal daily for 5 days, compared to PBS control, FIG. 2A)?
**A.** motor recovery

**Q.** What about the “macrophage morphology in lesion at higher magnification” value ([1]; 10 dpl, control lesion macrophages rounded amoeboid/foamy, FIG. 3F/3G) of the same molecule?
**A.** more ramified appearance, indicating reduced inflammatory activity

**Q.** What about the “iNOS labeling of macrophages at higher magnification” value ([1]; 10 dpl, versus control lesion, FIG. 3F/3G) of the same molecule?
**A.** very little iNOS labeling

**Q.** And the “number of mature oligodendrocytes in lesions” value ([1]; intraperitoneal injection 5-9 dpl, analysis at 10 dpl, compared to PBS control, FIG. 3A/3B)?
**A.** increased number of mature oligodendrocytes in lesions

**Q.** What about the “increase in oligodendrocytes (Olig2+ CC1+ cells), quantification” value ([1]; intraperitoneal injection 5-9 dpl, analysis at 10 dpl, versus PBS control, FIG. 3C, P<0.05) of the same molecule?
**A.** 2 fold

**Q.** And the “pro-inflammatory iNOS expression in lesion (Iba1+iNOS+ microglia/macrophages)” value ([1]; intraperitoneal injection 5-9 dpl, analysis at 10 dpl, versus PBS treated lesion, FIG. 3D/3E)?
**A.** dramatically reduced pro-inflammatory iNOS expression
